pIC50: −log10 of the molar value.
What was measured:
plasma lipids = assay: Plasma lipids in cholesterol-fed rats after oral PLA2 inhibitor; assay type: in vivo; settings: 100 mg/kg oral gavage, about 8 hours after start of feeding
Experimental: Ultimately, agents that inhibit the absorption of dietary cholesterol should suppress postprandial increases in plasma cholesterol. This was tested with several. PLA2 inhibitors in cholesterol-fed rats. The general protocol consisted of preparing a carboxymethyl cellulose/Tween 20 dispersion of the compound of interest and administering it at a dose of 100 mg/kg by oral gavage to rats previously trained to meal-feed. Immediately following administration of the inhibitor, the rats were fed a lipid-rich meal of chow supplemented with cholesterol, peanut oil, and cholic acid.

porcine pancreatic PLA2 = target: T1, porcine pancreatic PLA2 (Sus scrofa, UniProt P00592); assay: Fluorescence assay of porcine pancreatic PLA2 inhibition in vitro; assay type: biochemical; settings: porcine pancreatic PLA2, in vitro; read-out: In Vitro IC50 (porc. panc. PLA2)
T1 construct: purchased Sigma Chemical Company (St. Louis, Mo.); host or cells: porcine pancreas
T1 sequence (P00592 23-146): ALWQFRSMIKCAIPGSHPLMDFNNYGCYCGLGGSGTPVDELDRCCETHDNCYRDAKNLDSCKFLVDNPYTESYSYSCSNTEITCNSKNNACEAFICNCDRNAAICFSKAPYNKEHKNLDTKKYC
Source text: The IC50 values for inhibition of porcine pancreatic PLA2, in vitro, are included for comparison with the in vivo activities.
A sensitive fluorescence method was used to measure the activity of pancreatic phospholipase A2 (PLA2) in vitro. PLA2 hydrolyzes the ester bond linking fatty acids to the sn-2 position in glycerophospholipids. Several types of PLA2 exist, including those isolated from venoms, synovial fluid, platelets, immunoactive cell types and the pancreas. The pancreatic PLA2 was the subject of this experiment because of its fundamental role in promoting lipid absorption in the intestine.
PLA2 activity was detected by the loss of pyrene excimer fluorescence that occurs when (1-pyrenyl)decanoic acid is hydrolysed from the sn-2 position of 1,2-bis-(1-pyrenedecanoyl)sn-glycero-3-phosphocholine ((P10)2 PC) by the action of PLA2. The use of similar pyrene-labeled PC substrates to detect PLA2 activity has been described previously (Radvanyi F., Jordan L., Russo-Marie F., Bon C., "A sensitive and continuous fluorometric assay for phospholipase A2 using pyrene-labeled phospholipids in the presence of serum albumin." Anal. Biochem., 177:103-109 (1989)). The full photophysical basis for the assay is described elsewhere (Birks J. B., "Photophysics of Aromatic Molecules," Wiley Interscience, New York, pp 301-371 (1970)).
In brief, pyrene excimers are formed by the complexation of one pyrene moiety in the ground-state with one pyrene moiety in the excited state to form an excited-state dimer (excimer) which fluoresces at longer wavelengths (475 nm emission maximum) than the wavelength range in which excited-state pyrene monomers fluoresce (370-400 nm). Excimer formation is dependent on the concentration of pyrene moieties. (P10)2 PC emits excimer fluorescence almost exclusively due to the fixed juxtaposition of the pyrene chromophores. The substrate concentration is sufficiently dilute so that excimer formation between the products of PLA2 action, namely lysoPY10PC and the (1-pyrenyl)decanoic acid, is insignificant.
In general, this assay scheme should have been applicable to the study of any type of PLA2. However, since pancreatic PLA2 is unique from the other PLA2 's in that it operates almost exclusively against micellized PC, the PC substrate in this assay was micellized with 1 mM deoxycholic acid. The PC component of the micelles consisted of 5 μM (P10)2 PC substrate diluted with a 99-fold excess (495 μM) of 1-oleyl-2-palmityl phosphatidylcholine (OPPC). The OPPC was inert to PLA2 hydrolysis because it contained ether-linked fatty alkyl chains in place of the ester-linked fatty acyl chains of normal PC. OPPC was included to 1) dilute the micellar (P10)2 PC concentration thereby minimizing intermolecular excimer formation, and 2) preserve the integrity of the micelles against the action of PLA2 since nonspecific micelle disruption could lead to nonlinear kinetics and fluorescence changes independent of lipolysis.
Phospholipase A2 (porcine pancreas), bovine serum albumin (BSA) (fraction V, essentially fatty acid-free) and sodium deoxycholate were obtained from Sigma Chemical Company, (St. Louis, Mo.). 1-Oleyl-2-palmityl-DL-phosphatidylcholine (OPPC) was ordered from Serdary Research Laboratories, Inc. (London, Ont., Canada). 1,2-Bis-(1-pyrenedecanoyl)-sn-glycero-3-phosphatidylcholine ((P10)2 PC) was obtained from Molecular Probes, Inc. (Eugene, Oreg.).
HEPES buffer (SHE) contained 150 mM NaCl, 20 mM HEPES (N-[2-hydroxyethyl]piperazine-N'-[2-ethanesulfonic acid]) and 1 mM EDTA (ethylenediamine tetraacetic acid) at pH 8.0.
1 mM (P10)2 PC in chloroform was prepared by adding 1 mL chloroform to a vial containing 1 mg of (P10)2 PC, as shipped by Molecular Probes. The actual concentration was determined spectrophotometrically by diluting 10 μL of the chloroform solution in 2 mL of ethanol. The absorbance spectrum of the ethanol solution was measured between 380 nm to 280 nm (Beckman DU-64). […]

[1] = test system: intestinal lipid absorption; assay: Lymph-fistula rats, effect of PLA2 inhibitors on lymphatic lipid output; assay type: in vivo, rat; settings: FIGS. 10 and 11
Source text: The intestinal lipid absorption pathway was isolated in the rat by inserting an infusion cannula in the proximal duodenum and implanting a second cannula in the mesenteric lymph vessel to intercept the lipoprotein output from the intestine. This lymph-fistula rat model was used to investigate the effect of pancreatic PLA2 inhibition, in situ, on intestinal absorption of infused lipid emulsions. In a typical experiment, cannulae were implanted the day before the experimental infusion. Following surgery, the animals were infused (2.5 mL/hr) with isotonic saline containing dextrose to flush the GI tract and obtain basal levels of lymphatic lipid output. On the day of the experiment, infusion of the dextrose recovery solution was continued for 1 hour to collect a basal lymph fraction. At the start of the next hour, the intake of the duodenal infusion cannula was switched to a lipid emulsion of isotonic saline containing safflower oil (59 mM), cholesterol (5.2 mM), PC (3.3 mM) and taurocholic acid (1.9 mM). One hour lymph fractions were collected until the end of the experiment. The lipid content (mass) of lymph fractions was determined by HPLC with a mass-sensitive, evaporative light-scattering detector. […]

cholesterol absorption = assay: Cholesterol-fed hamster model, plasma and liver cholesterol / cholesterol absorption; assay type: in vivo; settings: FIG. 13
Source text: Neomycin and β-sitosterol (Cytellin) have been used as cholesterol absorption inhibitors to treat hypercholesterolemic patients (Kesaniemi, et al., Serum cholesterol lowering by inhibition of cholesterol absorption, Atherosclerosis, VIII:791-794 (1989)). The mechanisms by which these agents inhibit intestinal cholesterol absorption are unknown. Relatively large doses must be administered (1.5-2 g/day neomycin, 3-50 g/day β-sitosterol) to achieve up to 25% reductions in serum cholesterol levels. The advantages of PLA2 inhibitors over these agents is that the mechanism of cholesterol absorption inhibition is known and sufficiently potent PLA2 inhibitors could be administered in much smaller doses (potentially fewer side effects and better patient compliance) to achieve greater reductions in serum cholesterol levels. For example, in a cholesterol-fed hamster model, administration of 100 mg/kg of the phospholipase A2 inhibitor methyl-[2-(hexadecyloxy)phenyl]methyl ester phosphonic acid (Compound D in FIG. 13) produced reductions in plasma and liver cholesterol levels nearly equivalent to those obtained with a ten-fold higher dose (i.e., 1000 mg/kg) of β-sitosterol. Pancreatic PLA2 inhibitors represent a significant advancement over current agents, the use of which has already proven cholesterol absorption inhibitors to be a beneficial and effective therapy for hypercholesterolemia.

serum cholesterol = settings: neomycin 1.5-2 g/day; β-sitosterol 3-50 g/day; cited from earlier work
Caco-2 cells [2] = assay: Caco-2 phospholipase A2-dependent cholesterol absorption, time course; assay type: cell-based, human; settings: for suppression of cholesterol absorption by PC, effect of PLA2: porcine pancreatic PLA2, PC-containing micelles
Caco-2 cells [3] = assay: Caco-2 retinol absorption; assay type: cell-based, human; settings: 10 μM retinol; FIG. 6
Experimental: (§1) Caco-2 cells were used as a tissue culture model of the human intestinal epithelium to compare the effects of phosphatidylcholine and lysophosphatidylcholine on lipid absorption and the subsequent re-esterification and secretion of micelle-derived lipids.
The micelle preparations used in the experiments described for FIG. 4 also contained 10 μM retinol. Retinol was included to determine whether the influence of micellar phospholipid composition on cholesterol absorption extended to other fatty alcohols. Like cholesterol, retinol is a fatty alcohol that is absorbed from the diet by the intestinal epithelium and passed into the circulation by an analogous transport process involving fatty acylation and assembly of the resultant retinyl esters into chylomicrons (Blomhoff R., Green M. H., Berg T., Norum K. R., "Transport and storage of vitamin A." Science, 250:399-404 (1990)).

Caco-2 cells [4] = assay: Caco-2 lipase studies; assay type: cell-based, human
Experimental: as §1
This was tested with the Caco-2 cells. Taurocholic acid micelles containing phosphatidylcholine, triolein, cholesteryl oleate and cholesterol were placed in the medium covering the apical surface of Caco-2 cell monolayers. Depending on the neutral lipid lipase being studied, either the triolein or cholesteryl oleate was tritium-labeled. The time course of radiolabeled lipid uptake and metabolism was studied in the absence or presence of the neutral lipid lipases, with or without PLA2. The results are in agreement with those presented by Borgstrom and coworkers. […] The results for micellar tri[^3 H]olein uptake indicated a similar but less severe dependence of triglyceride lipase activity on PLA2.

Compound: CCCCCCCCCCCn1nnn(Cc2ccccc2)c1=N [Compound B, 1,4-dihydro-1-(phenylmethyl)-4-undecyl-5H-tetrazol-5-imine]
- % Change in plasma lipids vs. Control: HDL Chol. (plasma lipids): 9%
- % Change in plasma lipids vs. Control: Total Chol. (plasma lipids): -32%
- % Change in plasma lipids vs. Control: non-HDL Chol. (plasma lipids): -44%
- pIC50 (porcine pancreatic PLA2): 5.40
- lipid absorption in rats [1]: reduced

Compound: CC[C@H](CC[C@@H](C)[C@H]1CC[C@H]2[C@@H]3CC=C4C[C@@H](O)CC[C@]4(C)[C@H]3CC[C@]12C)C(C)C [β-sitosterol]
- cholesterol absorption in hamsters (cholesterol absorption): reduced
- reductions in serum cholesterol levels (serum cholesterol): up to 25%

Compound: PLA2: porcine pancreatic phospholipase A2
- [3H]oleate-labeled PC synthesis relative to phospholipid-free micelles (Caco-2 cells [2]; 6 hours, micelles with lyso-PC, or PC with PLA2): slight decrease
- cell [14C]cholesteryl ester relative to incubations without micellar phospholipid (Caco-2 cells [2]; 12 hours, PC in the presence of PLA2): 60%
- cell-associated free [14C]cholesterol relative to level in the absence of PC (Caco-2 cells [2]; PLA2 added to PC-containing micelles): 76%
- suppression of cholesterol absorption by PC, effect of PLA2 (Caco-2 cells [2]): partially reversed the inhibitory effects of micellar PC
- suppression of cholesterol absorption by PC, effect of PLA2 (Caco-2 cells [2]; listed as pancreatic phospholipase A2): reverses the suppression of cholesterol absorption and metabolism
- retinol uptake and esterification (Caco-2 cells [3]): not affected
- cellular absorption of fatty acids (Caco-2 cells [4]; FIGS. 7 and 8): dramatic increase
- cellular accumulation of tritiated lipid from tri[3H]olein (Caco-2 cells [4]; triglyceride lipase with or without PLA2, FIG. 8): the greatest cellular accumulation of tritiated lipid occurred in the incubation containing both lipases together
- entry of micellar [3H]cholesteryl oleate label into cells (Caco-2 cells [4]; with or without carboxyl ester lipase and PLA2, FIG. 7): did not enter the cells unless both carboxyl ester lipase and PLA2 were included in the incubation

Source: patent publication US5578639A, “PLA2 inhibitors and their use for inhibition of intestinal cholesterol absorption” (Warner-Lambert Company, priority 1995, dated 1996)
